Assay results as given in paper PMC6201930 (PLoS ONE, 2018).
Where “and” joins values, the source holds several entries; their conditions need not be identical. Equal values may be shown once. Read-outs that look alike come from different tables or passages of the source.

Tests used:
[1] = Cytotoxicity in myoblasts; details: mouse, primary mouse myoblasts
Source text: (§1) When considering compounds for potential readthrough therapy it is important to monitor cellular and animal safety. In order to determine the most promising compounds to further evaluate in in vivo safety, we measured cytotoxicity in two different cell types. We used activated human peripheral blood mononuclear cells (PBMCs) (Table 2 and Fig 2D and 2E). PBMCs are a primary cell that when activated with phytohaemagglutinin (PHA) expand quickly and are commonly used as an in vitro surrogate for rapidly growing cells in the human body to evaluate cytotoxicity. Prior to advancing compounds into human studies, safety evaluation in rodents is performed. As an in vitro surrogate for rodent toxicity, we used primary mouse myoblasts.

[2] = tested on: fLuc mRNA harboring a UGA nonsense mutation at codon 190 (fLuc-190-NS); type: biochemical, rabbit
Source text: ThefLuc-190-NS assay is an in vitro rabbit reticulocyte lysate translation of an fLuc mRNA harboring a UGA nonsense mutation at codon 190 (fLuc-190-NS). It is believed that positively charged aminoglycosides are poorly taken up by cells, and we used this cell-free readthrough assay to eliminate the potential variable of cell uptake when measuring readthrough potency. […] Readthrough protein was detected using a HA-HIS MSD immunoassay described previously.
This cell-free translation assay used synthetic LUC mRNAs harboring an EMCV IRES and LUC codon 190-UGA premature stop codon prepared using the MegaScript in vitro transcription kit (Ambion). Translation reactions were done with the Rabbit Reticulocyte Lysate System (Promega) with 100 ng RNA and increasing concentrations of aminoglycosides. The amount of luminescence produced was determined after approximately 4 hours using a Viewlux CCD imager (Perkin-Elmer). Fold suppression over background was calculated as (aminoglycoside light units/PBS light units).

[3] = Neuromast toxicity assay (DASPEI staining); details: zebrafish, zebrafish embryos 5 dpf, neuromasts (hair cells), other: embryos exposed to the drug in 24-well plates
Description: All neuromast cytotoxicity assays were done at Biobide–BBD Biophenix SL (Gipuzkoa, Spain). […] Compounds were tested at 5 doses. After 24 hours of exposure embryos were incubated in DASPEI (2-(4-(dimethylamino)styryl) -N-Ethylpyridinium Iodide) for neuromast staining. Images of each embryo were taken and neuromasts counted. A compound was classified as ototoxic when the number of neuromasts in the treated group was less than that in the untreated control group (One Way ANOVA, multiple comparisons vs. vehicle).

[4] = Cytotoxicity in stimulated PBMCs (CellTitre-Glo ATP); details: human
Source text: as §1
(§2) Frozen human Peripheral Blood Mononuclear Cells (PBMCs) were obtained from […] (Alameda, CA, Cat# PB003F) from a single donor. […] Plates were incubated at 37°C with 5% CO2 for 4 hours prior to compound treatment. Compounds were serially diluted and added to the plates. Plates were incubated at 37°C, 5% CO2 incubator, for 72 hours prior to determinations of ATP levels. Cell viability was determined using a chemiluminescent assay to monitor adenosine triphosphate (ATP) levels in live cells (CellTitre-Glo; CTG; Promega, Cat#G7571). Methods were performed per the manufacturer’s instructions.

[5] = tested on: activated human peripheral blood mononuclear cells (PBMCs); experiment: as above; details: read-out: Stimulated PBMC CC50, individual determinations (S1 File)
Source text: as §1, §2

[6] = tested on: tGFP-CFTR542X-HA-HIS construct (codon 542 UGA) in 293H cells; experiment: tGFP-542X readthrough assay (HA-HIS MSD immunoassay); type: cell-based, human
[7] = tested on: p53 R213* UGA premature termination codon in HDQ-P1 mammary carcinoma cells; experiment: HDQ-p53UGA213 readthrough assay (full-length p53, MSD immunoassay); type: cell-based, human; details: for HDQ-p53UGA213 (Maxfold): maximum readthrough activity above background
Description: We utilized HDQ-P1 mammary carcinoma cells, which are homozygous for R213*, a UGA premature termination codon in the gene for the tumor suppressor protein p53 [30]. […] Western blot hybridization and Meso Scale Discovery (MSD) immunoassay detection of p53 were done as previously described. […] Cells (45K per well) were grown in 96-well plates and treated with compounds for 24 hours. […] Cells were lysed with 60 μl per well of lysis buffer (20 mM Tris-HCL, pH 7.5, 1 mM EGTA, 1 mM EDTA,150 mM Nacl, 0.5% Triton X100) for one hour at room temperature and 30 μl of lysate per well were transferred to the coated plate and incubated overnight at 4 °C. […] Plates were then washed three times with PBS-T and 30 μl of 0.25 μ/ml goat anti-rabbit IgG-Sulfo-tag antibody (MSD) in TBS-C was added and incubated for 1 hour at room temperature. Plates were then washed three times with PBS-T and 150 μl read buffer (MSD) was added. Plates were read immediately in a SECTOR S 600 (MSD).

[8] = AVERAGE (S1 File), unit not given for EC5X
[9] = individual experiments (S1 File)
[10] = individual experiments (S1 File), unit not printed for EC5X (EC2X of the sheet in uM)
[11] = Neuromast CC50, AVERAGE (S1 File)
[12] = Neuromast CC50, individual determinations (S1 File)
[13] = 293H cells, 24 hours, average ± SD
[14] = maximum readthrough above background, average ± SD
[15] = concentration required to double the level of full-length p53 protein, average ± SD, at least three experiments, highest concentration 300 μM
[16] = individual experiments (S1 File), listed as PTC-0302307 (C1)
[17] = individual experiments (S1 File), unit not printed for EC5X (EC2X of the sheet in uM), listed as PTC-0302307 (C1)

SMILES | fLuc-190-NS EC2X ([2]; AVERAGE (S1 File)) | fLuc-190-NS MaxFold ([2]; AVERAGE (S1 File)) | fLuc-190-NS EC5X [2, 8] | fLuc-190-NS EC2X ([2]; cell-free, average ± SD) | fLuc-190-NS MaxFold ([2]; cell-free, average ± SD) | CC50 at 24 h [3, 11] | CC50 at 24 h [3, 12] | tGFP-542X EC2X [6, 13] | tGFP-542X EC2X ([6]; AVERAGE (S1 File)) | tGFP-542X Maxfold ([6]; AVERAGE (S1 File)) | tGFP-542X Maxfold [6, 14] | HDQ-p53UGA213 EC2X ([7]; AVERAGE (S1 File)) | HDQ-p53UGA213 max ([7]; AVERAGE (S1 File)) | HDQ-p53UGA213 EC2X [7, 15] | HDQ-p53UGA213 (Maxfold) ([7]; average ± SD) | other results
CN[C@@H]1[C@@H](O)[C@@H](O[C@@H]2[C@@H](O)[C@H](O[C@H]3O[C@H]([C@H](C)N)CC[C@H]3N)[C@@H](N)C[C@H]2N)OC[C@]1(C)O [Gentamicin C2a, gentamicin C2a] | 1.1 µM | 32.1 | 2.8 | 1.077 ± 0.029 µM | 32 ± 5 fold | 2.7 µM | 2.7 µM | 583 ± 110 µM | 582.8 µM | 2.8 | 3 ± 0.5 fold | 251.7 µM | 4.2 | 252 ± 49 µM | 4 ± 1 fold | CC50 ([1]; Myoblast CC50, AVERAGE (S1 File)): 5680 µM; CC50 ([1]; Myoblast CC50, individual determinations (S1 File)): 4640 µM; fLuc-190-NS EC2X [2, 9]: 1.08 µM and 1.10 µM and 1.05 µM; fLuc-190-NS MaxFold [2, 9]: 26.96 and 33.13 and 36.29; fLuc-190-NS EC5X [2, 10]: 2.91 and 2.75 and 2.60; CC50 at 72 h ([4]; Stimulated PBMC CC50, AVERAGE (S1 File)): 6710 µM; CC50 [5]: > 1250 µM; tGFP-542X EC2X [6, 9]: 691 µM and 586 µM and 471.89 µM; tGFP-542X Maxfold [6, 9]: 2.62 and 2.35 and 3.32; tGFP-542X EC5X [6, 10]: >1000; HDQ-p53UGA213 EC2X ([7]; concentration required to double the level of full-length p53 protein, average ± SD, at least three experiments, highest concentration 300 μM, listed as C2a): triple digit; HDQ-p53UGA213 EC2X [7, 9]: 217.36 µM and 286.09 µM; HDQ-p53UGA213 max ([7]; individual experiments (S1 File), max fold): 3.40 and 5.00
CN[C@@H]1[C@@H](O)[C@@H](O[C@@H]2[C@@H](O)[C@H](O[C@H]3O[C@H]([C@@H](C)NC)CC[C@H]3N)[C@@H](N)C[C@H]2N)OC[C@]1(C)O [Gentamicin C1, gentamicin C1] | 1.1 µM | 18.9 | 2.6 | 1.061 ± 0.262 µM | 19 ± 2 fold | 9.4 µM | 9.4 µM | 439 ± 192 µM | 439.1 µM | 3.4 | 3 ± 2 fold | 311.4 µM | 4.8 | 311 ± 321 µM | 5 ± 3 fold | fLuc-190-NS EC2X [2, 16]: 1.36 µM and 0.90 µM and 0.92 µM; fLuc-190-NS MaxFold [2, 16]: 18.25 and 17.61 and 20.78; fLuc-190-NS EC5X [2, 17]: 2.89 and 2.68 and 2.37; CC50 at 72 h ([4]; Stimulated PBMC CC50, individual determinations (S1 File)): > 1250 µM; CC50 ([5]; listed as PTC-0302307 (C1)): > 1000 µM; tGFP-542X EC5X [6, 8]: 825.7; tGFP-542X EC2X [6, 16]: 303 µM and 575 µM and >1000 µM; tGFP-542X Maxfold [6, 16]: 6 and 2 and 1.70; tGFP-542X EC5X [6, 17]: 826 and >1000; HDQ-p53UGA213 EC2X ([7]; concentration required to double the level of full-length p53 protein, average ± SD, at least three experiments, highest concentration 300 μM, listed as C1): triple digit; HDQ-p53UGA213 EC2X [7, 16]: 74.03 µM and 776.89 µM and 269.47 µM and 125.28 µM; HDQ-p53UGA213 max ([7]; individual experiments (S1 File), max fold, listed as PTC-0302307 (C1)): 6.40 and 2.10 and 2.50 and 8.00
